Literature values, collected in patent US6297239A, “Inhibitors of prenyl-protein transferase” (Merck & Co., Inc., priority 1998, dated 2001).

System: farnesyl-protein transferase
Conditions: via inhibition of HMG-CoA reductase

| Compound | indirect inhibition of farnesyl-protein transferase in vivo |
| --- | --- |
| CC[C@H](C)C(=O)O[C@H]1CCC=C2C=C[C@H](C)[C@H](CC[C@@H]3C[C@@H](O)CC(=O)O3)[C@H]21 [compactin] | Indirect inhibition |
| CC[C@H](C)C(=O)O[C@H]1C[C@@H](C)C=C2C=C[C@H](C)[C@H](CC[C@@H]3C[C@@H](O)CC(=O)O3)[C@H]21 [lovastatin] | Indirect inhibition |
